Patent publication US12655125B2 (SIRONAX LTD., priority 2020, dated 2026)
Read-outs that look alike come from different tables or passages of the source.

Tested on: HT-29 cells
Assay: HT29 Cells 0FBS Assay In Vitro (TNF-α/SMAC mimetic/zVAD-FMK induced necroptosis, CellTiter-Glo cell viability)
Assay type: cell-based
Details: Homo sapiens, HT-29 cells, FBS free medium, TNF-α (10 ng/ml), SMAC mimetic (6 uM), zVAD-FMK (10 μM), 20 hours, geometric mean EC50
Summary of the method: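 HT-29 cells (5,000/well, seeded overnight) in serum-free McCoy's 5A were stimulated with TNF-α 10 ng/ml, SMAC mimetic 6 μM and zVAD-FMK 10 μM to induce necroptosis. Compound added as 10-point 3-fold series for 20 h at 37° C. CellTiter-Glo luminescence gives viability; EC50 is geometric mean of duplicate dose-responses.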

[1] = read-out: Cell activity (EC50) of Compounds 117-281
[2] = read-out: Cell activity (EC50) of Compounds 1-116

Row | Structure (SMILES) | EC50 [1] [nM] | EC50 [2] [nM]
1 | Cc1nc(CO)sc1-c1cc(OC2CN(C(=O)N3N=CC[C@H]3c3cc(F)cc(F)c3)C2)c(F)cn1 [compound 180, (S)-(5-(3,5-difluorophenyl)-4,5-dihydro-1H-pyrazol-1-yl)(3-((5-fluoro-2-(2-(hydroxymethyl)-4-methylthiazol-5-yl)pyridin-4-yl)oxy)azetidin-1-yl)methanone] | 0.1 to 100 | –
2 | COCCNc1nn(C)c(-c2cc(OC3CN(C(=O)N4N=CC[C@H]4c4cc(F)cc(F)c4)C3)c(F)cn2)c1C [compound 160, (S)-(5-(3,5-difluorophenyl)-4,5-dihydro-1H-pyrazol-1-yl)(3-((5-fluoro-2-(3-((2-methoxyethyl)amino)-1,4-dimethyl-1H-pyrazol-5-yl)pyridin-4-yl)oxy)azetidin-1-yl)methanone] | 0.1 to 100 | –
3 | CC(C)NC(=O)Nc1cnn(C)c1-c1cc(OC2CN(C(=O)N3N=CC[C@H]3c3cc(F)cc(F)c3)C2)c(F)cn1 [compound 141, (S)-1-(5-(4-((1-(5-(3,5-difluorophenyl)-4,5-dihydro-1H-pyrazole-1-carbonyl)azetidin-3-yl)oxy)-5-fluoropyridin-2-yl)-1-methyl-1H-pyrazol-4-yl)-3-isopropylurea] | 0.1 to 100 | –
4 | Cc1ncn(C)c1-c1cc(OC2CN(C(=O)N3N=CC[C@H]3c3cc(F)cc(F)c3)C2)c(F)cn1 [compound 45, (S)-(5-(3,5-difluorophenyl)-4,5-dihydro-1H-pyrazol-1-yl)(3-((2-(1,4-dimethyl-1H-imidazol-5-yl)-5-fluoropyridin-4-yl)oxy)azetidin-1-yl)methanone] | – | 0.1 to 100
5 | Cc1nn(C)c(-c2cc(OC3CN(C(=O)N4N=CC[C@H]4c4cc(F)cc(F)c4)C3)c(F)cn2)c1N [compound 209, (S)-(3-((2-(4-amino-1,3-dimethyl-1H-pyrazol-5-yl)-5-fluoropyridin-4-yl)oxy)azetidin-1-yl)(5-(3,5-difluorophenyl)-4,5-dihydro-1H-pyrazol-1-yl)methanone] | 0.1 to 100 | –
6 | Cc1c(NCC2CC2)nn(C)c1-c1cc(OC2CN(C(=O)N3N=CC[C@H]3c3cc(F)cc(F)c3)C2)c(F)cn1 [compound 163, (S)-(3-((2-(3-((cyclopropylmethyl)amino)-1,4-dimethyl-1H-pyrazol-5-yl)-5-fluoropyridin-4-yl)oxy)azetidin-1-yl)(5-(3,5-difluorophenyl)-4,5-dihydro-1H-pyrazol-1-yl)methanone] | 0.1 to 100 | –
7 | CC(=O)N(C(C)=O)c1cc(-c2cc(OC3CN(C(=O)N4N=CC[C@H]4c4cc(F)cc(F)c4)C3)c(F)cn2)n(C)n1 [compound 136, (S)—N-acetyl-N-(5-(4-((1-(5-(3,5-difluorophenyl)-4,5-dihydro-1H-pyrazole-1-carbonyl)azetidin-3-yl)oxy)-5-fluoropyridin-2-yl)-1-methyl-1H-pyrazol-3-yl)acetamide] | 0.1 to 100 | –
8 | Cn1nc(N)cc1-c1cc(OC2CN(C(=O)N3N=CC[C@H]3c3cc(F)cc(F)c3)C2)c(F)cn1 [compound 41, (S)-(3-((2-(3-amino-1-methyl-1H-pyrazol-5-yl)-5-fluoropyridin-4-yl)oxy)azetidin-1-yl)(5-(3,5-difluorophenyl)-4,5-dihydro-1H-pyrazol-1-yl)methanone] | – | 0.1 to 100
9 | Cc1c(C#N)nn(C)c1-c1ccc(F)c(OC2CN(C(=O)N3N=CC[C@H]3c3cc(F)cc(F)c3)C2)n1 [compound 186, (S)-5-(6-((1-(5-(3,5-difluorophenyl)-4,5-dihydro-1H-pyrazole-1-carbonyl)azetidin-3-yl)oxy)-5-fluoropyridin-2-yl)-1,4-dimethyl-1H-pyrazole-3-carbonitrile] | 0.1 to 100 | –
10 | Cc1ncc(-c2cc(OC3CN(C(=O)N4N=CC[C@H]4c4cc(F)cc(F)c4)C3)c(F)cn2)s1 [compound 26, (S)-(5-(3,5-difluorophenyl)-4,5-dihydro-1H-pyrazol-1-yl)(3-((5-fluoro-2-(2-methylthiazol-5-yl)pyridin-4-yl)oxy)azetidin-1-yl)methanone] | – | 0.1 to 100
11 | Cc1nn(C2CCNCC2)c(C)c1-c1cc(OC2CN(C(=O)N3N=CC[C@H]3c3cc(F)cc(F)c3)C2)c(F)cn1 [compound 181] | 0.1 to 100 | –
12 | Cc1cnn(C)c1-c1ccc(F)c(OC2CN(C(=O)N3N=CC[C@H]3c3cc(F)cc(F)c3)C2)c1 [compound 197, (S)-(5-(3,5-difluorophenyl)-4,5-dihydro-1H-pyrazol-1-yl)(3-(5-(1,4-dimethyl-1H-pyrazol-5-yl)-2-fluorophenoxy)azetidin-1-yl)methanone] | 0.1 to 100 | –
13 | CCc1nn(-c2cc(OC3CN(C(=O)N4N=CC[C@H]4c4cc(F)cc(F)c4)C3)c(F)cn2)c(C)c1C#N [compound 124, (S)-1-(4-((1-(5-(3,5-difluorophenyl)-4,5-dihydro-1H-pyrazole-1-carbonyl)azetidin-3-yl)oxy)-5-fluoropyridin-2-yl)-3-ethyl-5-methyl-1H-pyrazole-4-carbonitrile] | 0.1 to 100 | –
14 | Cn1nccc1-c1cc(OC2CN(C(=O)N3N=CC[C@H]3c3cc(F)cc(F)c3)C2)c(F)cn1 [compound 3, (S)-(5-(3,5-difluorophenyl)-4,5-dihydro-1H-pyrazol-1-yl)(3-((5-fluoro-2-(1-methyl-1H-pyrazol-5-yl)pyridin-4-yl)oxy)azetidin-1-yl)methanone] | – | 0.1 to 100
15 | CCNC(=O)c1cnn(C)c1-c1cc(OC2CN(C(=O)N3N=CC[C@H]3c3cc(F)cc(F)c3)C2)c(F)cn1 [compound 71, (S)-5-(4-((1-(5-(3,5-difluorophenyl)-4,5-dihydro-1H-pyrazole-1-carbonyl)azetidin-3-yl)oxy)-5-fluoropyridin-2-yl)-N-ethyl-1-methyl-1H-pyrazole-4-carboxamide] | – | 0.1 to 100
16 | Cc1ncc(C#N)n1-c1cc(OC2CN(C(=O)N3N=CC[C@H]3c3cc(F)cc(F)c3)C2)c(F)cn1 [compound 143, (S)-1-(4-((1-(5-(3,5-difluorophenyl)-4,5-dihydro-1H-pyrazole-1-carbonyl)azetidin-3-yl)oxy)-5-fluoropyridin-2-yl)-2-methyl-1H-imidazole-5-carbonitrile] | 0.1 to 100 | –
17 | Cn1ncnc1-c1ccc(F)c(OC2CN(C(=O)N3N=CC[C@H]3c3cc(F)cc(F)c3)C2)n1 [compound 28, (S)-(5-(3,5-difluorophenyl)-4,5-dihydro-1H-pyrazol-1-yl)(3-((3-fluoro-6-(1-methyl-1H-1,2,4-triazol-5-yl)pyridin-2-yl)oxy)azetidin-1-yl)methanone] | – | 0.1 to 100
18 | CCc1nn(-c2cc(OC3CN(C(=O)N4N=CC[C@H]4c4cc(F)cc(F)c4)C3)c(F)cn2)c(C)c1C(N)=O [compound 281, (S)-1-(4-((1-(5-(3,5-difluorophenyl)-4,5-dihydro-1H-pyrazole-1-carbonyl)azetidin-3-yl)oxy)-5-fluoropyridin-2-yl)-3-ethyl-5-methyl-1H-pyrazole-4-carboxamide] | 0.1 to 100 | –
19 | CN(C)CCNC(=O)c1cnn(C)c1-c1cc(OC2CN(C(=O)N3N=CC[C@H]3c3cc(F)cc(F)c3)C2)c(F)cn1 [compound 69, (S)-5-(4-((1-(5-(3,5-difluorophenyl)-4,5-dihydro-1H-pyrazole-1-carbonyl)azetidin-3-yl)oxy)-5-fluoropyridin-2-yl)-N-(2-(dimethylamino)ethyl)-1-methyl-1H-pyrazole-4-carboxamide] | – | 100 to 1000
20 | CN1CCN(CC(=O)Nc2cnn(C)c2-c2cc(OC3CN(C(=O)N4N=CC[C@H]4c4cc(F)cc(F)c4)C3)c(F)cn2)CC1 [compound 123, (S)—N-(5-(4-((1-(5-(3,5-difluorophenyl)-4,5-dihydro-1H-pyrazole-1-carbonyl)azetidin-3-yl)oxy)-5-fluoropyridin-2-yl)-1-methyl-1H-pyrazol-4-yl)-2-(4-methylpiperazin-1-yl)acetamide] | 100 to 1000 | –
21 | Cc1nn(-c2cc(OC3CN(C(=O)N4N=CCC4c4cc(F)cc(F)c4)C3)c(F)cn2)c(C)c1C(N)=O (centres unmarked) [compound 234, 1-(4-((1-(5-(3,5-difluorophenyl)-4,5-dihydro-1H-pyrazole-1-carbonyl)azetidin-3-yl)oxy)-5-fluoropyridin-2-yl)-3,5-dimethyl-1H-pyrazole-4-carboxamide] | 0.1 to 100 | –
22 | Cc1nn(-c2cc(OC3CN(C(=O)N4N=CC[C@H]4c4cc(F)cc(F)c4)C3)c(F)cn2)c(C)c1C(=O)O [compound 233, (S)-1-(4-((1-(5-(3,5-difluorophenyl)-4,5-dihydro-1H-pyrazole-1-carbonyl)azetidin-3-yl)oxy)-5-fluoropyridin-2-yl)-3,5-dimethyl-1H-pyrazole-4-carboxylic acid] | 0.1 to 100 | –
23 | Cc1c(N)nn(C)c1-c1ncc(F)c(OC2CN(C(=O)N3N=CC[C@H]3c3cc(F)cc(F)c3)C2)n1 [compound 207, (S)-(3-((2-(3-amino-1,4-dimethyl-1H-pyrazol-5-yl)-5-fluoropyrimidin-4-yl)oxy)azetidin-1-yl)(5-(3,5-difluorophenyl)-4,5-dihydro-1H-pyrazol-1-yl)methanone] | 0.1 to 100 | –
24 | Cc1nn(-c2cc(OC3CN(C(=O)N4N=CC[C@H]4c4cc(F)cc(F)c4)C3)c(F)cn2)c(C)c1C(=O)N1CCCCC1 [compound 183, (S)-(5-(3,5-difluorophenyl)-4,5-dihydro-1H-pyrazol-1-yl)(3-((2-(3,5-dimethyl-4-(piperidine-1-carbonyl)-1H-pyrazol-1-yl)-5-fluoropyridin-4-yl)oxy)azetidin-1-yl)methanone] | 0.1 to 100 | –
25 | CNc1cc(-c2cc(OC3CN(C(=O)N4N=CC[C@H]4c4cc(F)cc(F)c4)C3)c(F)cn2)n(C)n1 [compound 154] | 0.1 to 100 | –
26 | Cc1nn(-c2cc(OC3CN(C(=O)N4N=CC[C@H]4c4cc(F)cc(F)c4)C3)c(F)cn2)c(C)c1NC(=O)C1CC1 [compound 139, (S)—N-(1-(4-((1-(5-(3,5-difluorophenyl)-4,5-dihydro-1H-pyrazole-1-carbonyl)azetidin-3-yl)oxy)-5-fluoropyridin-2-yl)-3,5-dimethyl-1H-pyrazol-4-yl)cyclopropanecarboxamide] | 0.1 to 100 | –
